Patent US20150183791A1, “IMIDAZO[1,2-b]PYRIDAZINE-BASED COMPOUNDS, COMPOSITIONS COMPRISING THEM, AND METHODS OF THEIR USE” (LEXICON PHARMACEUTICALS, INC., priority 2013, published 2015)

Biological target: T1, AAK1 (full length human) transfected with Flag/AP2MI in HEK293F cells; phospho-mu2 (Homo sapiens, UniProt Q2M2I8)
T1 construct: HA; expressed in transfected cells; host or cells: HEK293F
Assay: HEK281 cell-based assay
Conditions: HEK293F cells transfected with human AAK1 and AP2M1, 3 hours with compound, phospho-mu2 Western blot normalized to total Mu2
Experimental: HEK293F cells were cultured in media containing DMEM (Gibco, cat. #11965), 10% FBS (SAFC Biosciences, cat. #12103C), 1×GPS (glutamine, penicillin and streptomycin). On day one, cells were plated on a 10 cm dish so that they are ˜80% confluent at time of transfection. Roughly 12 million cells were in a 10 cm dish at time of transfection. On day two, each dish was transfected with 48 ug DNA and 144 ul Lipofectamine 2000 (Invitrogen, cat.#11668-019). The DNA was comprised of a mixture (per 10 cm dish) containing 3 ug AAK1/HA/pIRES (full length human, NCBI accession no. NP_055726.2), 45 μg Flag/AP2MI/pcDNA (full length human), and 1.5 ml OPTI-MEM. The Lipofectamine 2000 is made up of a mixture (per 10 cm dish) containing 144 μl Lipofectamine 2000 and 1.5 ml OPTI-MEM. Each mixture was transferred to individual 15 ml tubes and incubated at room temperature for 5 minutes, and then the two mixes were combined and incubated at room temperature for 20 minutes. Growth media was then aspirated from each 10 cm plate and replaced with 10 ml of DMEM+10% FBS (no GPS). Finally, 3 ml DNA/Lipofectamine mix was added to each 10 cm dish and mix gently followed by incubate of plate overnight at 37° C. and 5% CO2.
On day three, compounds were diluted in 100% DMSO at 1000× final concentration, followed by 3-fold serial dilutions for a total of 5 concentrations tested. Four compounds were tested per 10 cm dish. One ul of each compound dilution was then pipetted into a deep-well, 96-well plate, followed by addition of 500 μl DMEM+0.5% FBS into each well for a 2× final concentration of each compound. Cells were resuspended in a 10 cm dish by simple pipetting (HEK293 cells come off the plate that easy at this point) and then transferred to a 50 ml conical tube and pelleted by centrifugation at 1000 rpm for 5 min. Cell pellets were then resuspended in 2.75 ml DMEM+0.5% FBS per 10 cm dish and 100 μl of cell suspension transferred into each well of 96-well TC plate. Finally, 100 μl of 2× compound diluted in DMEM+0.5% FBS was then added into wells containing cell suspension for a 1× final concentration. Plates were then incubated at 37° C. and 5% CO2 for 3 hours followed by transferring of cell suspensions from each well into 12-tube PCR strips. The PCR strips were spun in a tip rack at 1000 rpm for 5 minutes to pellet cells and media was then removed by pipetting without disturbing the cell pellet.
To prepare for Western Blot analysis, cell pellets were resuspend in 40 ul 1×LDS-PAGE sample buffer (Invitrogen, cat.# NP0008) +2× Halt phophatase and protease inhibitor cocktail (Thermo Scientific, cat.#1861284), followed by sonicating each with microtip sonicator set at 5 for 8-10 seconds. Five ul of 10× NuPage Sample Reducing Agent (with […]) was to each sample followed by heat denaturing at 70 C for 10 min on PCR machine. A total of 10 μl per sample was loaded into each lane of a 4-20% Tris-Glycine Criterion 26-well gel (Biorad, cat.#345-0034) for the phospho-mu2 blot and 10 μl per lane in a 4-12% Bis-Tris (+MES buffer) NuPAGE 26-well gel (Invitrogen, cat.# WG1403BX10) for the mu2 blot. For controls, 2 ng of phospho-mu2 or 20 ng mu2/Flag proteins were loaded in the last well of each gel. After SDS-PAGE, samples on each gel were transferred to PVDF membrane using an iBlot and membranes were blocked for one hour in TBST+5% milk, followed by wash 3× for 5-10 min with TBST. Criterion gels were probed with rabbit anti-phospho-mu2 (1:5000; a rabbit polyclonal antibody produced by New England Peptide and affinity purified at Lexicon) in TBST+5% BSA, whereas, NuPAGE gels were probed with mouse anti-Flag (1:500; Sigma, cat.# F1804) in TBST+5% milk, and these primary antibodies were incubated overnight at 4° C. on a rocker. […]

T1 sequence (Q2M2I8 1-863 isoform Q2M2I8-2): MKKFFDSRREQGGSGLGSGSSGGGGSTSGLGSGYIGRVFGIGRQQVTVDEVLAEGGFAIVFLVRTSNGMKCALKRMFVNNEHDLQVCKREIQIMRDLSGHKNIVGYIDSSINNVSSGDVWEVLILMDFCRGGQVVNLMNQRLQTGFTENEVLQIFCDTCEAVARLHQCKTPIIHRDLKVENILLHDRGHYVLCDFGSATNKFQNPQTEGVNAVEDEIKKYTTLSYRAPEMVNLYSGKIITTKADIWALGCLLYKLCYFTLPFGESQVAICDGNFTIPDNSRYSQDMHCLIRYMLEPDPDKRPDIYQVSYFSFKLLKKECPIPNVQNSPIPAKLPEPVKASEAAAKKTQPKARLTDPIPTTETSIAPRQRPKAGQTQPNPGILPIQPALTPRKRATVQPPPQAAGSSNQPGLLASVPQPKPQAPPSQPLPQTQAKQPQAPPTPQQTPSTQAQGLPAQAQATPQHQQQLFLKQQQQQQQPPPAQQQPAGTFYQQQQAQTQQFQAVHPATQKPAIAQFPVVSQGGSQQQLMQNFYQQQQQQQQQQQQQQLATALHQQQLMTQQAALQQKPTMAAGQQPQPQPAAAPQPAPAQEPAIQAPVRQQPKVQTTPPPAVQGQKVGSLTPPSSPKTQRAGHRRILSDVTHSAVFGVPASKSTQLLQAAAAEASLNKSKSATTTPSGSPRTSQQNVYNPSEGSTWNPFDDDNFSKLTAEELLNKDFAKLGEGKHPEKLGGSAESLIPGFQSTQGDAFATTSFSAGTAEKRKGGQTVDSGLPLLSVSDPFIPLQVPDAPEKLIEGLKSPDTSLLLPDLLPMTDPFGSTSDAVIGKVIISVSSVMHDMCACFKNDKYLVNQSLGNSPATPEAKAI

Row | SMILES | CBA IC50
1 | CC(=O)c1cccc(-c2ccc3ncc(Br)n3n2)c1 [1-(3-(3-Bromoimidazo[1,2-b]pyridazin-6-yl)phenyl)ethanone] | * (“*” means less than or equal to 1.0 μM)
2 | CC(=O)c1cccc(-c2ccc3ncc(-c4ccc(C(N)=O)cc4)n3n2)c1 [4-(6-(3-Acetylphenyl)imidazo[1,2-b]pyridazin-3-yl)benzamide] | * (“*” means less than or equal to 1.0 μM)
3 | CC(=O)c1ccc(-c2cnc3ccc(-c4ccc(C#N)cc4)nn23)s1 [4-[3-(5-Acetyl-thiophen-2-yl)-imidazo[1,2-b]pyridazin-6-yl]-benzonitrile] | * (“*” means less than or equal to 1.0 μM)

Biological target: AAK1 (full-length human protein) (Homo sapiens, UniProt Q2M2I8)
Sequence (Q2M2I8 1-863 isoform Q2M2I8-2): as above
Assay: P81 filter plate assay
Assay type: biochemical
Conditions: 0.2 nM-scale full-length human AAK1, Mu2 substrate, 33P-ATP, one hour at room temperature; class symbols
Experimental: Compounds were serially diluted into a Labcyte LDV plate (Labcyte, cat# LP-0200) using a Mutiprobe (PerkinElmer) and Biomek FX (Beckman Coulter) so that the highest compound concentration was at 96 μM. Compounds were then pinged (75 nL per well) into a Greiner 384-well reaction plate (Greiner, #781076) using an ECHO 550 Liquid Handler (Labcyte). A total of 12 μl reaction buffer (IMAP buffer containing Tween and DTT, from Molecular Devices) was then added to each well of columns 1 and 13 for the negative controls and 12 μl of 2×AAK1 (0.2 nM full-length human protein, NCBI accession no. NP_055726.2) was added to the remaining wells. Enzyme was then pre-incubated with compound for 10 minutes at room temperature. Reactions were initiated upon Minitrak (PerkinElmer) addition of 12 μl substrate mix containing 2× Mu2 (0.2 μM, full length human protein), 2× cold ATP (2 μM), and 1.3 μCi of hot ^33P-ATP. Reactions proceeded for one hour at room temperature. Meanwhile, Millipore 384-well P81 filter plates (Millipore, catalog # MZPHN0 W10) were placed on a plate washer (Zoom ZW, from Titertek) and pre-wet with 50 μl 1% phosphoric acid. Kinase reactions were then stopped upon addition of 24 μl of 2% phosphoric acid to each well and the Minitrak was then used to transfer 40 μl from each well into the pre-wet Millipore 384-well P81 filter plates. Reaction mixtures were incubated for 10 minutes at room temperature in the P81 plates, followed by washing five times with 100 μl/well of 1% phosphoric acid using the Zoom filter washer. The bottom of each filter plate was sealed followed by addition of 20 μl Microscint 40 to each well, sealing the top of the plates with Flashplate cover, and then waiting one hour until reading on the TopCount (Perkin Elmer).

Row | SMILES | IC50 [µM]
4 | CC(C)C[C@H](N)Cn1ccc(-c2ccc3ncc(Cl)n3n2)cc1=O [(S)-1-(2-Amino-4-methylpentyl)-4-(3-chloroimidazo[1,2-b]pyridazin-6-yl)pyridin-2(1H)-one] | 0.1 to 1
5 | CC(C)C[C@H](N)Cn1ccc(-c2ccc3ncc(Br)n3n2)cc1=O [(S)-1-(2-Amino-4-methylpentyl)-4-(3-bromoimidazo[1,2-b]pyridazin-6-yl)pyridin-2(1H)-one] | 0.1 to 1
6 | Cc1cnc2ccc(-c3ccn(CCC(C)(C)C)c(=O)c3)nn12 [1-(3,3-Dimethylbutyl)-4-(3-methylimidazo[1,2-b]pyridazin-6-yl)pyridin-2(1H)-one] | 0.01 to 0.1
7 | CC(C)(C)Cn1cc(-c2ccc3ncc(Cl)n3n2)cn1 [3-Chloro-6-(1-neopentyl-1H-pyrazol-4-yl)imidazo[1,2-b]pyridazine] | 0.01 to 0.1
8 | CC(C)(C)Cn1cc(-c2ccc3ncc(Br)n3n2)cn1 [3-Bromo-6-(1-neopentyl-1H-pyrazol-4-yl)imidazo[1,2-b]pyridazine] | 0.01 to 0.1
9 | CC(C)CCn1cc(-c2ccc3nccn3n2)cn1 [6-(1-Isopentyl-1H-pyrazol-4-yl)imidazo[1,2-b]pyridazine] | 0.1 to 1

Results, then the compound that gave them:

Row | IC50 [µM] | SMILES
10 | ≤ 0.01 | CCOc1ncccc1-c1cnc2ccc(-c3ccn(CCC(C)C)c(=O)c3)nn12 [4-(3-(2-Ethoxypyridin-3-yl)imidazo[1,2-b]pyridazin-6-yl)-1-isopentylpyridin-2(1H)-one]
11 | ≤ 0.01 | COc1nc(C)ccc1-c1cnc2ccc(-c3ccn(CCC(C)C)c(=O)c3)nn12 [1-isopentyl-4-(3-(2-methoxy-6-methylpyridin-3-yl)imidazo[1,2-b]pyridazin-6-yl)pyridin-2(1H)-one]
12 | 0.01 to 0.1 | CC(=O)c1cnc2ccc(-c3ccn(CCC(C)C)c(=O)c3)nn12 [4-(3-Acetylimidazo[1,2-b]pyridazin-6-yl)-1-isopentylpyridin-2(1H)-one]
13 | ≤ 0.01 | COc1ncccc1-c1cnc2ccc(-c3cnn(CCC(C)C)c3)nn12 [6-(1-Isopentyl-1H-pyrazol-4-yl)-3-(2-methoxypyridin-3-yl)imidazo[1,2-b]pyridazine]
14 | ≤ 0.01 | CC(C)CCn1ccc(-c2ccc3ncc(Br)n3n2)cc1=O [4-(3-Bromoimidazo[1,2-b]pyridazin-6-yl)-1-isopentylpyridin-2(1H)-one]
15 | ≤ 0.01 | COc1ncc(F)cc1-c1cnc2ccc(-c3ccn(CCC(C)C)c(=O)c3)nn12 [4-(3-(5-Fluoro-2-methoxypyridin-3-yl)imidazo[1,2-b]pyridazin-6-yl)-1-isopentylpyridin-2(1H)-one]
16 | ≤ 0.01 | COc1ncccc1-c1cnc2ccc(-c3cnn(CC(C)(C)C)c3)nn12 [3-(2-Methoxypyridin-3-yl)-6-(1-neopentyl-1H-pyrazol-4-yl)imidazo[1,2-b]pyridazine]
17 | ≤ 0.01 | COc1ncccc1-c1cnc2ccc(-c3ccn(CCC(C)C)c(=O)c3)nn12 [1-isopentyl-4-(3-(2-methoxypyridin-3-yl)imidazo[1,2-b]pyridazin-6-yl)pyridin-2(1H)-one]
18 | 0.01 to 0.1 | COc1ncccc1-c1cnc2ccc(-c3ccn(C[C@@H](N)CC(C)C)c(=O)c3)nn12 [(S)-1-(2-Amino-4-methylpentyl)-4-(3-(2-methoxypyridin-3-yl)imidazo[1,2-b]pyridazin-6-yl)pyridin-2(1H)-one]
19 | ≤ 0.01 | CC(C)CCn1cc(-c2ccc3ncc(Br)n3n2)cn1 [3-Bromo-6-(1-isopentyl-1H-pyrazol-4-yl)imidazo[1,2-b]pyridazine]
20 | ≤ 0.01 | COc1cnccc1-c1cnc2ccc(-c3cccc(C(=O)CCC(C)C)c3)nn12 [1-(3-(3-(3-Methoxypyridin-4-yl)imidazo[1,2-b]pyridazin-6-yl)phenyl)-4-methylpentan-1-one]
21 | ≤ 0.01 | COc1ncccc1-c1cnc2ccc(-c3cnn(C(=O)OC(C)C)c3)nn12 [Isopropyl 4-(3-(2-methoxypyridin-3-yl)imidazo[1,2-b]pyridazin-6-yl)-1H-pyrazole-1-carboxylate]
22 | ≤ 0.01 | CC(C)CCn1ccc(-c2ccc3ncc(Cl)n3n2)cc1=O [4-(3-Chloroimidazo[1,2-b]pyridazin-6-yl)-1-isopentylpyridin-2(1H)-one]
23 | ≤ 0.01 | Cc1cnc2ccc(-c3ccn(CCC(C)C)c(=O)c3)nn12 [1-Isopentyl-4-(3-methylimidazo[1,2-b]pyridazin-6-yl)pyridin-2(1H)-one]

Same assay, conditions: same assay, given as numeric bound instead of class symbol

Row | IC50 [µM] | SMILES
24 | > 0.3 | CC(C)(C)Cn1cc(-c2ccc3nccn3n2)cn1 [6-(1-Neopentyl-1H-pyrazol-4-yl)imidazo[1,2-b]pyridazine]
25 | > 0.3 | CC(C)C[C@H](N)Cn1ccc(-c2ccc3nccn3n2)cc1=O [(S)-1-(2-Amino-4-methylpentyl)-4-(imidazo[1,2-b]pyridazin-6-yl)pyridin-2(1H)-one]
26 | > 0.3 | CC(C)C[C@@H](Cn1ccc(-c2ccc3nccn3n2)cc1=O)N1C(=O)c2ccccc2C1=O [(S)-2-(1-(4-(Imidazo[1,2-b]pyridazin-6-yl)-2-oxopyridin-1(2H)-yl)-4-methylpentan-2-yl)isoindoline-1,3-dione]
27 | > 0.3 | CC(C)OC(=O)n1cc(-c2ccc3nccn3n2)cn1 [Isopropyl 4-(imidazo[1,2-b]pyridazin-6-yl)-1H-pyrazole-1-carboxylate]
28 | > 0.3 | Cc1cnc2ccc(-c3ccn(C[C@@H](N)CC(C)C)c(=O)c3)nn12 [(S)-1-(2-Amino-4-methylpentyl)-4-(3-methylimidazo[1,2-b]pyridazin-6-yl)pyridin-2(1H)-one]
